Assay results: patent publication US10131652B2, “Pyrimidinyloxy benzene derivatives as herbicides” (E. I. DU PONT DE NEMOURS AND COMPANY, priority 2014, dated 2018)

Key:
Test in all cases: Test D pre-/postemergence plant response
Format in all cases: in vivo
[1] = test system: lambsquarters (Chenopodium album); conditions: Chenopodium album, pre-emergence, Preemergence
Procedure, shortened: (§1)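 Two application timings were run together: preemergence onto seeded loam–sand pots, and postemergence onto 1- to 4-leaf plants (2 to 18 cm) in peat/vermiculite medium with starter nutrients. Formulation was a non-phytotoxic solvent with surfactant. Ratings, 0 to 100, were made visually versus controls after 13 to 15 greenhouse days.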

[2] = test system: morningglory (Ipomoea coccinea); conditions: Ipomoea, pre-emergence, Preemergence
Procedure, shortened: as §1

soybean (Glycine max) = conditions: Glycine max, pre-emergence, Preemergence
Procedure, shortened: as §1

[3] = test system: oilseed rape (Brassica napus); conditions: Brassica napus, pre-emergence, Preemergence
Procedure, shortened: as §1

[4] = test system: galium (catchweed bedstraw, Galium aparine); conditions: Galium, pre-emergence, Preemergence
Procedure, shortened: as §1

[5] = test system: pigweed (Amaranthus retroflexus); conditions: Amaranthus retroflexus, pre-emergence, Preemergence
Procedure, shortened: as §1

[6] = test system: winter wheat (Triticum aestivum); conditions: Triticum aestivum, pre-emergence, Preemergence
Procedure, shortened: as §1

corn (Zea mays) = conditions: Zea mays, pre-emergence, Preemergence
Procedure, shortened: as §1

[7] = test system: waterhemp (common waterhemp, Amaranthus rudis); conditions: Amaranthus tuberculatus, pre-emergence, Preemergence
Procedure, shortened: as §1

**Q.** What does the source list for N#Cc1cccc(Oc2ncc(Cl)cn2)c1-c1cc(C(F)(F)F)ccn1 [Compound 158, 5-chloro-2-[3-cyano-2-[4-(trifluoromethyl)-2-pyridinyl]phenoxy]pyrimidine]?
**A.** pest or weed control at 125 g/ha ([1]; 125 g ai/ha, read-out: Plant response rating (scale 0 to 100), Lambsquarters): 80%; pest or weed control at 16 g/ha ([1]; 16 g ai/ha, scale 0 to 100 (0 no effect, 100 complete control), read-out: Plant response rating, Lambsquarters): 75%; pest or weed control at 31 g/ha ([1]; 31 g ai/ha, scale 0 to 100 (0 no effect, 100 complete control), read-out: Plant response rating, Lambsquarters): 100%; pest or weed control at 62 g/ha ([1]; 62 g ai/ha, scale 0 to 100 (0 no effect, 100 complete control), read-out: Plant response rating, Lambsquarters): 100%; pest or weed control at 125 g/ha ([2]; 125 g ai/ha, read-out: Plant response rating (scale 0 to 100), Morningglory): 70%; pest or weed control at 16 g/ha ([2]; 16 g ai/ha, scale 0 to 100 (0 no effect, 100 complete control), read-out: Plant response rating, Morningglory): 5%; pest or weed control at 31 g/ha ([2]; 31 g ai/ha, scale 0 to 100 (0 no effect, 100 complete control), read-out: Plant response rating, Morningglory): 15%; pest or weed control at 62 g/ha ([2]; 62 g ai/ha, scale 0 to 100 (0 no effect, 100 complete control), read-out: Plant response rating, Morningglory): 15%; plant injury at 125 g/ha (soybean (Glycine max); 125 g ai/ha, read-out: Plant response rating (scale 0 to 100), Soybean): 95%; plant injury at 16 g/ha (soybean (Glycine max); 16 g ai/ha, scale 0 to 100 (0 no effect, 100 complete control), read-out: Plant response rating, Soybean): 0%; plant injury at 31 g/ha (soybean (Glycine max); 31 g ai/ha, scale 0 to 100 (0 no effect, 100 complete control), read-out: Plant response rating, Soybean): 25%; plant injury at 62 g/ha (soybean (Glycine max); 62 g ai/ha, scale 0 to 100 (0 no effect, 100 complete control), read-out: Plant response rating, Soybean): 45%; plant injury at 125 g/ha ([3]; 125 g ai/ha, read-out: Plant response rating (scale 0 to 100), Oilseed Rape): 98%; plant injury at 16 g/ha ([3]; 16 g ai/ha, scale 0 to 100 (0 no effect, 100 complete control), read-out: Plant response rating, Oilseed Rape): 40%; plant injury at 31 g/ha ([3]; 31 g ai/ha, scale 0 to 100 (0 no effect, 100 complete control), read-out: Plant response rating, Oilseed Rape): 50%; plant injury at 62 g/ha ([3]; 62 g ai/ha, scale 0 to 100 (0 no effect, 100 complete control), read-out: Plant response rating, Oilseed Rape): 90%; pest or weed control at 125 g/ha ([4]; 125 g ai/ha, read-out: Plant response rating (scale 0 to 100), Galium): 100%; pest or weed control at 16 g/ha ([4]; 16 g ai/ha, scale 0 to 100 (0 no effect, 100 complete control), read-out: Plant response rating, Galium): 0%; pest or weed control at 31 g/ha ([4]; 31 g ai/ha, scale 0 to 100 (0 no effect, 100 complete control), read-out: Plant response rating, Galium): 50%; pest or weed control at 62 g/ha ([4]; 62 g ai/ha, scale 0 to 100 (0 no effect, 100 complete control), read-out: Plant response rating, Galium): 100%; pest or weed control at 125 g/ha ([5]; 125 g ai/ha, read-out: Plant response rating (scale 0 to 100), Pigweed): 100%; pest or weed control at 16 g/ha ([5]; 16 g ai/ha, scale 0 to 100 (0 no effect, 100 complete control), read-out: Plant response rating, Pigweed): 70%; pest or weed control at 31 g/ha ([5]; 31 g ai/ha, scale 0 to 100 (0 no effect, 100 complete control), read-out: Plant response rating, Pigweed): 75%; pest or weed control at 62 g/ha ([5]; 62 g ai/ha, scale 0 to 100 (0 no effect, 100 complete control), read-out: Plant response rating, Pigweed): 100%; plant injury at 125 g/ha ([6]; 125 g ai/ha, read-out: Plant response rating (scale 0 to 100), Wheat): 0%; plant injury at 16 g/ha ([6]; 16 g ai/ha, scale 0 to 100 (0 no effect, 100 complete control), read-out: Plant response rating, Wheat): 0%; plant injury at 31 g/ha ([6]; 31 g ai/ha, scale 0 to 100 (0 no effect, 100 complete control), read-out: Plant response rating, Wheat): 0%; plant injury at 62 g/ha ([6]; 62 g ai/ha, scale 0 to 100 (0 no effect, 100 complete control), read-out: Plant response rating, Wheat): 0%; plant injury at 125 g/ha (corn (Zea mays); 125 g ai/ha, read-out: Plant response rating (scale 0 to 100), Corn): 15%; Corn plant response rating (crop injury, 0 = no effect, 100 = complete kill) at 16 g/ha (corn (Zea mays); 16 g ai/ha, scale 0 to 100 (0 no effect, 100 complete control)): 0%; Corn plant response rating (crop injury, 0 = no effect, 100 = complete kill) at 31 g/ha (corn (Zea mays); 31 g ai/ha, scale 0 to 100 (0 no effect, 100 complete control)): 0%; Corn plant response rating (crop injury, 0 = no effect, 100 = complete kill) at 62 g/ha (corn (Zea mays); 62 g ai/ha, scale 0 to 100 (0 no effect, 100 complete control)): 5%; pest or weed control at 125 g/ha ([7]; 125 g ai/ha, read-out: Plant response rating (scale 0 to 100), Waterhemp): 100%; pest or weed control at 16 g/ha ([7]; 16 g ai/ha, scale 0 to 100 (0 no effect, 100 complete control), read-out: Plant response rating, Waterhemp): 100%; pest or weed control at 31 g/ha ([7]; 31 g ai/ha, scale 0 to 100 (0 no effect, 100 complete control), read-out: Plant response rating, Waterhemp): 100%; pest or weed control at 62 g/ha ([7]; 62 g ai/ha, scale 0 to 100 (0 no effect, 100 complete control), read-out: Plant response rating, Waterhemp): 100%
